Measured values from US7473683B2, “Nonpolar thymidine analogs” (The Board of Trustees of the Leland Stanford Junior …, priority 2005, dated 2009).

Assays:
[1] = tested on: DNA Pol I (Klenow fragment, exo-); test: steady-state kinetics of single nucleotide insertions, thymidine analogues in the template; format: biochemical, E. coli; parameters: efficiency: unit not given here; settings: for Rel. efficiency: T template = 1; for efficiency as analog of thymidine in a template strand (summary): Example 4, dATP insertion; for rel. efficiency: relative to insertion of dATP opposite T
Protocol: (§1) In vitro steady-state kinetics. As polymerase substrates we used 28 mer/23 mer template-primer duplexes having the sequence (5′-ACT GXT CTCCCTATAGTGAGTCGTATTA [SEQ ID NO:1])·(5′-TAATACGACTCACTATAGGGAGA [SEQ ID NO:2]). Kinetics were measured at 37° C. in a buffer containing 10 mM Mg^2+. The primer was 5′ end-labeled and was extended by the polymerase in the presence of a single dNTP species over varied concentration and time. Products of single nucleotide insertions were resolved from unreacted primer by 20% denaturing gel electrophoresis, and were quantitated by autoradiography. Details of the kinetics experiments are given in the Supporting Data.
(§2) We chose DNA polymerase I (Klenow fragment, exonuclease-deficient) as an ideal candidate for initial study, as it is enzymatically well-characterized among replicative enzymes, and yet is relatively small and acts as a single subunit. We carried out kinetics studies of single nucleotide insertions in the steady state, using a gel electrophoresis-based assay.
(§3) Data for single nucleotide insertion kinetics in the steady-state. The enzyme was the Klenow fragment of DNA pol I from E. coli (exonuclease deficient). Methods are as described above.

[2] = tested on: DNA Pol I (Klenow fragment, exo-); test: steady-state kinetics of single nucleotide insertions, incoming nucleotide analogues (dNTP/dXTP); format: biochemical, E. coli; settings: for rel. efficiency: relative to insertion of dTTP opposite A
Protocol: as §1, §2, §3

[3] = tested on: self-complementary strands (5′-XCGCGCG); test: dangling end thermal denaturation studies (base stacking) with self-complementary strands; format: physicochemical; settings: dangling residue X in 5′-XCGCGCG
Protocol: Thermal Denaturation Studies. After the samples were prepared in melting buffer (1M NaCl, 10 mM phosphate buffer (pH 7.0) with 0.1 mM EDTA), they were heated to 95° C. and allowed to slowly cool at a rate of 1° C./min to 5° C. The melting studies were carried out in Teflon-stoppered 1 cm path length quartz cells on a Varian Cary 1 UV-vis spectophotometer equipped with thermoprogrammer. Absorbance was monitored at 280 nm for stacking and at 260 nm for base pairing. […] The data were analyzed by the melt curve processing program, MeltWin v. 3.0. Melting temperatures (Tm) were determined by computer-fit of the first derivative of absorbance with respect to 1/T. Uncertainty in Tm is estimated at ±0.5° C. based on repetitions of experiments. Free-energy values were derived by two methods: (1) computer-fitting the denaturation data with an algorithm employing linear sloping baselines, using the two-state approximation for melting. Fits were excellent, with χ^−2 values of 10^−6 or better. (2) Van't Hoff thermodynamic parameters were derived from linear plots of 1/Tm vs In[CT] by measuring Tm as a function of concentration.
Sequence Design. We incorporated all five phosphoramidites into three new sequence contexts each for further study of pairing and stacking properties. The first is a self-complementary sequence designed to form a hexamer duplex, with the nonnatural base analogue overhanging (dangling) at the 5′ ends (Table 2). This same sequence context has been used previously in several studies of DNA base stacking. The second and third contexts comprise a pair of 12mer sequences that form duplexes with well-behaved two-state behavior. One strand is pyrimidine-rich, while the other is purine-rich; we substituted each analogue at a central position of each strand to test two widely varied sequence contexts for pairing effects.
Base Stacking. DNA base stacking stability has been correlated with the size of compounds when mono-, bi-, tri-, and tetra-cyclic base analogues were compared. To test this with the present series, which varies in size by a smaller amount, we examined the short self-complementary oligonucleotides by thermal denaturation experiments. The self-complementary duplexes contained the modified nucleosides as a 5′ overhanging base.

[4] = Example 4: incorporating dATP opposite template thymidine analog
[5] = dNTP inserted opposite template base A, 37° C.
[6] = dNTP inserted opposite template base A, 37° C., 10 mM MgCl2, pH 7.5, normalized to lowest enzyme concentration
[7] = dNTP inserted opposite template base A
[8] = dNTP inserted opposite template base C, 37° C.
[9] = dNTP inserted opposite template base C, 37° C., 10 mM MgCl2, pH 7.5, normalized to lowest enzyme concentration
[10] = dNTP inserted opposite template base C
[11] = dNTP inserted opposite template base G, 37° C.
[12] = dNTP inserted opposite template base G, 37° C., 10 mM MgCl2, pH 7.5, normalized to lowest enzyme concentration
[13] = dNTP inserted opposite template base G
[14] = dNTP inserted opposite template base T, 37° C.
[15] = dNTP inserted opposite template base T, 37° C., 10 mM MgCl2, pH 7.5, normalized to lowest enzyme concentration
[16] = dNTP inserted opposite template base T
[17] = Example 4: incorporating dXTP opposite adenine in a DNA template

| Compound | Km [1, 4] | Vmax [1, 4] | efficiency [1, 4] | Rel. efficiency [1, 4] | Km [2, 5] | Vmax [2, 6] | rel. efficiency [2, 7] | Km [2, 8] | Vmax [2, 9] | rel. efficiency [2, 10] | Km [2, 11] | Vmax [2, 12] | rel. efficiency [2, 13] | Km [2, 14] | Vmax [2, 15] | rel. efficiency [2, 16] | also measured |
| --- | --- | --- | --- | --- | --- | --- | --- | --- | --- | --- | --- | --- | --- | --- | --- | --- | --- |
| Cc1cc([C@H]2C[C@@H](O)[C@@H](CO)O2)ccc1Cl [2H4C] | 31.5 ± 8.91 µM | 2.8214 ± 0.5396 | (9.81 ± 1.58) × 10^4 | 5.3 × 10^−3 |  |  |  |  |  |  |  |  |  |  |  |  |  |
| Cc1cc(C2CC(O)C(COP(=O)(O)OP(=O)(O)OP(=O)(O)O)O2)c(Cl)cc1Cl (stereo not drawn) [dLTP] |  |  |  |  | 18 ± 5 µM | 39 ± 4 % · min^−1 | 1.4 × 10^−1 | 160 ± 66 µM | 0.050 ± 0.010 % · min^−1 | 1.9 × 10^−5 | 110 ± 30 µM | 0.035 ± 0.004 % · min^−1 | 2.0 × 10^−5 | 62 ± 21 µM | 0.54 ± 0.10 % · min^−1 | 5.4 × 10^−4 | efficiency lower than for insertion of natural dTTP ([2]; dNTP analog inserted opposite adenine): 7 fold |
| Cc1cc(C2CC(O)C(COP(=O)(O)OP(=O)(O)OP(=O)(O)O)O2)c(F)cc1F (stereo not drawn) [dFTP, reference compound] |  |  |  |  | 29 ± 10 µM | 2.9 ± 0.1 % · min^−1 | 6.3 × 10^−3 | 200 ± 110 µM | 0.012 ± 0.004 % · min^−1 | 3.8 × 10^−6 | 300 ± 120 µM | 0.0067 ± 0.0017 % · min^−1 | 1.4 × 10^−6 | 37 ± 15 µM | 0.0066 ± 0.0010 % · min^−1 | 1.1 × 10^−5 |  |
| Cc1cccc(C2CC(O)C(COP(=O)(O)OP(=O)(O)OP(=O)(O)O)O2)c1 (stereo not drawn) [dHTP] |  |  |  |  | 110 ± 20 µM | 0.11 ± 0.20 % · min^−1 | 6.3 × 10^−5 | 310 ± 170 µM | 0.0067 ± 0.0023 % · min^−1 | 1.4 × 10^−6 | 200 ± 90 µM | 0.0065 ± 0.0016 % · min^−1 | 2.0 × 10^−6 | 59 ± 27 µM | 0.0046 ± 0.0011 % · min^−1 | 4.9 × 10^−6 |  |
| Cc1cc([C@H]2C[C@@H](O)[C@@H](CO)O2)c(Cl)cc1Cl [2C4C, 2,4-dichlorotoluene] |  |  |  |  |  |  |  |  |  |  |  |  |  |  |  |  | efficiency as analog of thymidine in a template strand (summary) [1]: most efficient analog overall |
| Cc1cc([C@H]2C[C@@H](O)[C@@H](CO)O2)c(Cl)cc1Br [2C4B] | 4.18 ± 0.47 µM | 30.4709 ± 0.8544 | (7.38 ± 1.07) × 10^6 | 4.0 × 10^−1 |  |  |  |  |  |  |  |  |  |  |  |  | efficiency as analog of thymidine in a template strand (summary) [1]: probably as good |
| difluorotoluene [reference compound] |  |  |  |  |  |  |  |  |  |  |  |  |  |  |  |  | Km ([1]; insertion of dATP opposite template base, 37° C.): 9.4 ± 2.9 µM; Vmax ([1]; insertion of dATP opposite template base, 37° C., 10 mM MgCl2, pH 7.5, normalized to lowest enzyme concentration): 24 ± 3 % · m in^−1; rel. efficiency ([1]; insertion of dATP opposite template base): 2.0 × 10^−1; Km ([1]; insertion of dCTP opposite template base, 37° C.): 33 ± 11 µM; Vmax ([1]; insertion of dCTP opposite template base, 37° C., 10 mM MgCl2, pH 7.5, normalized to lowest enzyme concentration): 0.071 ± 0.011 % · m in^−1; rel. efficiency ([1]; insertion of dCTP opposite template base): 1.7 × 10^−4; Km ([1]; insertion of dGTP opposite template base, 37° C.): 36 ± 12 µM; Vmax ([1]; insertion of dGTP opposite template base, 37° C., 10 mM MgCl2, pH 7.5, normalized to lowest enzyme concentration): 0.0071 ± 0.0008 % · m in^−1; rel. efficiency ([1]; insertion of dGTP opposite template base): 1.5 × 10^−5; Km ([1]; insertion of dTTP opposite template base, 37° C.): 22 ± 13 µM; Vmax ([1]; insertion of dTTP opposite template base, 37° C., 10 mM MgCl2, pH 7.5, normalized to lowest enzyme concentration): 0.12 ± 0.03 % · m in^−1; rel. efficiency ([1]; insertion of dTTP opposite template base): 4.2 × 10^−4; ΔG°37 (van't Hoff) [3]: -10.1 ± 0.0 kcal/mol; ΔH° (van't Hoff) [3]: -54.5 ± 0.9 kcal/mol; ΔS° (van't Hoff) [3]: −143 ± 3 cal/K · mol; ΔΔG° stacking per base [3]: 1.15 kcal/mol; Tm ([3]; 5.0 μM DNA strand, 1M NaCl, 10 mM phosphate buffer (pH 7.0), 0.1 mM EDTA, 280 nm): 52.4 °C; ΔG°37 (fits) ([3]; curve fits): -10.1 ± 0.0 kcal/mol; ΔTm ([3]; versus duplex with no dangling residue): 13.8 °C |
| Cc1cccc(C2CC(O)C(CO)O2)c1 (stereo not drawn) [dH] |  |  |  |  |  |  |  |  |  |  |  |  |  |  |  |  | fidelity (efficiency of correct T analog:A pair divided by efficiency of the most efficient mismatch) ([1]; varied-size template nucleoside mimics, insertion of dATP vs mismatch): 45 |
| Cc1cc(Cl)cc([C@H]2C[C@@H](O)[C@@H](CO)O2)c1 [3C] | 51.9 ± 1.9 µM | 0.4378 ± 0.1116 | (8.62 ± 0.85) × 10^3 | 4.6 × 10^−4 |  |  |  |  |  |  |  |  |  |  |  |  |  |
| Cc1cc([C@H]2C[C@@H](O)[C@@H](CO)O2)c(F)cc1Cl [2F4C] | 7.51 ± 2.79 µM | 49.7002 ± 1.5432 | (7.13 ± 2.13) × 10^6 | 3.8 × 10^−1 |  |  |  |  |  |  |  |  |  |  |  |  | efficiency as analog of thymidine in a template strand (summary) [1]: probably as good |
| Cc1cc(C2CC(O)C(COP(=O)(O)OP(=O)(O)OP(=O)(O)O)O2)c(I)cc1I (stereo not drawn) [dITP] |  |  |  |  | 18 ± 2 µM | 1.8 ± 0.1 % · min^−1 | 6.3 × 10^−3 | 23 ± 1 µM | 0.0023 ± 0.0004 % · min^−1 | 6.3 × 10^−6 | 43 ± 7 µM | 0.0020 ± 0.0001 % · min^−1 | 2.9 × 10^−6 | 37 ± 7 µM | 0.23 ± 0.02 % · min^−1 | 3.9 × 10^−4 |  |
| Cc1cc([C@H]2C[C@@H](O)[C@@H](CO)O2)cc(Cl)c1Cl [3,4-di-C] | 55 ± 24 µM | 0.4291 ± 0.1095 | (8.30 ± 1.55) × 10^3 | 4.5 × 10^−4 |  |  |  |  |  |  |  |  |  |  |  |  |  |
| Cc1cn([C@H]2C[C@H](O)[C@@H](COP(=O)(O)OP(=O)(O)OP(=O)(O)O)O2)c(=O)[nH]c1=O [dTTP, reference compound] |  |  |  |  | 1.9 ± 0.4 µM | 30 ± 3 % · min^−1 | 1 | 510 ± 400 µM | 0.067 ± 0.040 % · min^−1 | 6.3 × 10^−6 | 140 ± 86 µM | 0.42 ± 0.18 % · min^−1 | 2.5 × 10^−4 | 63 ± 18 µM | 0.010 ± 0.002 % · min^−1 | 1.0 × 10^−5 | Km [2, 17]: 1.56 ± 1 µM; Vmax [2, 17]: 30.70 ± 12.0; efficiency [2, 17]: (2.29 ± 0.9) × 10^7; Rel. efficiency ([2]; Example 4: incorporating dXTP opposite adenine in a DNA template, dTTP = 1): 1 |
| Cc1cc(C2CC(O)C(COP(=O)(O)OP(=O)(O)OP(=O)(O)O)O2)c(Br)cc1Br (stereo not drawn) [dBTP] |  |  |  |  | 23 ± 6 µM | 13 ± 2 % · min^−1 | 3.6 × 10^−2 | 74 ± 22 µM | 0.016 ± 0.001 % · min^−1 | 1.4 × 10^−5 | 50 ± 10 µM | 0.0094 ± 0.0004 % · min^−1 | 1.2 × 10^−5 | 38 ± 21 µM | 0.8 ± 0.16 % · min^−1 | 1.3 × 10^−3 |  |
